Laboratory results taken from paper PMC6328587 (Nature Communications, 2019).

Experiments:
[1] = biological target: T1, p38β (Homo sapiens, UniProt Q15759); assay: p38β degradation, western blot in MDA-MB-231 cells; assay type: cell-based; conditions: concentrations up to 2.5 µM
T1 construct: endogenous in cells; host or cells: MDA-MB-231
Description: […] once with ice-cold PBS (1 × ), followed by lysis in buffer containing 25 mM Tris [pH 7.5], 0.25% sodium deoxycholate, 1% Triton X-100, supplemented with 1X protease inhibitor cocktail (Roche), and phosphatase inhibitors (10 mM NaF, 1 mM Na3VO4, and 20 mM β-glycerophosphate), unless otherwise noted. Lysates were spun at 14,000 × g for 10 min at 4 °C and supernatant was evaluated for protein content using a Pierce BCA Protein Assay (ThermoFisher Scientific). In all experiments, 25–50 μg of protein was loaded onto 10% SDS-PAGE gels or 4–20% Criterion TGX precast gradient gels (Bio-Rad), transferred to nitrocellulose membranes, and probed with the specified antibodies overnight at 4 °C in 1X TBS-Tween (Tris-buffered saline plus 0.02% Tween 20) containing 5% non-fat milk. Immunoblots were visualized using a Bio-Rad ChemiDoc imaging instrument and subsequently processed and quantified using the accompanying Bio-Rad ImageLab software. See Supplementary Figure 8 for uncropped scans of western blots shown in the main text figures.
Supplementary Figure 4 cont.
Supplementary Figure 4. Characterization of M APK fam ily degradation selectivity (related to Figures 1-2). (a) p38 M APK fam ily m em bers (α, β, δ, γ) were aligned using the T-Coffee multiple sequence alignm ent server. […] Note: JNK1 and JNK2 are expressed as two alternatively-spliced form s. […]

[2] = biological target: T2, p38α:PROTAC:VHL ternary complex (Homo sapiens, UniProt P40337+Q16539); assay: In vitro ternary complex pull-down, GST-VBC bait, purified p38α; assay type: binding; conditions: all concentrations tested
T2 construct: The plasmid contains an N-terminal His6 tag and encodes a region spanning amino acids 2–360 of the human p38α kinase; made in house; host or cells: E. coli BL21-CodonPlus(DE3)-RIPL (p38α); E. coli BL21(DE3) (GST-VBC)
T2 sequence (Q16539 2-360 limits assumed): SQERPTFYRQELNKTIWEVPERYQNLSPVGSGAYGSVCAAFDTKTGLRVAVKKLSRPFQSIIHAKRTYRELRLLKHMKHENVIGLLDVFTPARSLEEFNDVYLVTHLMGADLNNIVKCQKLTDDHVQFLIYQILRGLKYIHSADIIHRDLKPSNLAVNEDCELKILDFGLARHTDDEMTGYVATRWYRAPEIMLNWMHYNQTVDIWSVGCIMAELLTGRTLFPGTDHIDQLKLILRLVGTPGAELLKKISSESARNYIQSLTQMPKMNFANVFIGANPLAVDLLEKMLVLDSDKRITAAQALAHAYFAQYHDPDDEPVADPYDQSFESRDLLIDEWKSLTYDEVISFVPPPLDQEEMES
T2 sequence (P40337 whole entry, the tested form may be a part): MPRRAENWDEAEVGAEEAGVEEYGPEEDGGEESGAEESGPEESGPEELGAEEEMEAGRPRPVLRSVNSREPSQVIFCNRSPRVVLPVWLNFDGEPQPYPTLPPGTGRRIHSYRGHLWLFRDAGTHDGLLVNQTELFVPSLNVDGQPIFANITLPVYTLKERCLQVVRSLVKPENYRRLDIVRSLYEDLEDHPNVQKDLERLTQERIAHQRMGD
T2 sequence (Q15370 whole entry partner, the tested form may be a part): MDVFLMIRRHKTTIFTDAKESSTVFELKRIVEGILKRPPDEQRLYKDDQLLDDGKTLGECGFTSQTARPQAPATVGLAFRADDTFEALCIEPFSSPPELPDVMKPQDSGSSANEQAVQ
T2 sequence (Q15369 whole entry partner, the tested form may be a part): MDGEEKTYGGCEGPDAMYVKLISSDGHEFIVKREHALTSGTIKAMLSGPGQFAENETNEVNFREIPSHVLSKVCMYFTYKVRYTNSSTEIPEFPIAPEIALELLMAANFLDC
Description: Glutathione Sepharose 4B (Glutathione-conjugated beads in a slurry containing 20% ethanol) were washed twice with 1X wash buffer (50 mM HEPES pH 7.5, 150 mM NaCl, 1 mM DTT, 0.01% NP40, 5 mM MgCl2, 10% Glycerol) and then blocked for 1 h at room temperature with 10% bovine serum albumin (BSA) in wash buffer. The beads were then washed again three times with wash buffer and then purified GST-VBC (stable form of VHL complexed with EloB/EloC, described above) was immobilized for 1 h at 4 °C at 3.6 pmole µL^–1 of beads. The beads were then washed three times with wash buffer, resuspended, divided into two equal volumes, and p38α or p38δ protein was added. The bead:p38 mixture was then aliquoted to separate tubes and PROTAC was added at the indicated concentration (PROTACs were intermediately diluted in 10% DMSO and 0.25% CHAPS). This mixture was incubated at 4 °C for 2 h. The beads were washed three times with 10 column volumes of wash buffer and then eluted with SDS loading buffer at 75 °C for 10 min.

[3] = biological target: T3, FLAG-p38δ (Homo sapiens, UniProt O15264); assay: Ubiquitination assay, FLAG-p38δ and HA-Ub in HeLa cells; assay type: cell-based; conditions: 1 µM PROTAC, 2 h
T3 construct: expressed in transfected cells; host or cells: HeLa
T3 sequence (O15264 1-365): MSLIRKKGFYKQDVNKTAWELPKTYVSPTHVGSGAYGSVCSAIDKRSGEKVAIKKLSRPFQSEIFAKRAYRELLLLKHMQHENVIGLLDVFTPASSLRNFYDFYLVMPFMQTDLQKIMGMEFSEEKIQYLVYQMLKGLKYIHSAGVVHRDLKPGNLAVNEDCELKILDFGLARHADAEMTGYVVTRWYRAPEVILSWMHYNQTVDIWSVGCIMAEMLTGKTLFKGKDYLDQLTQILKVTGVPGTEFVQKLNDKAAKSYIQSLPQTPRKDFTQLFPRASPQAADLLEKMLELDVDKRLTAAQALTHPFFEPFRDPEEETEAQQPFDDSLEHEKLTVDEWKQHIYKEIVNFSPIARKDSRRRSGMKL
Description: HeLa cells (2 × 10^6) were seeded into 10 cm dishes and allowed to adhere overnight. On the following day, cells were transfected with 3 µg pcDNA5-FLAG-p38α or pcDNA5-FLAG-p38δ and 1 µg pRK5-HA-Ubiquitin-WT (Addgene plasmid #17608) in Opti-MEM media using Lipofectamine 2000 (Invitrogen). After 6 h, Opti-MEM media were replaced with DMEM (1 × ) and cells were grown for an additional 24 h. After this time, cells were treated with indicated concentrations of either vehicle (DMSO) or PROTAC for the indicated amount of time at 37 °C. Cells were then placed on ice, rinsed twice with ice-cold 1X PBS and lysed in 500 µL modified 1X RIPA buffer (25 mM Tris-HCl pH 7.6, 150 mM NaCl, 1% NP-40, 1% sodium deoxycholate, 0.1% SDS) containing 5 mM 1,10-phenanthroline monohydrate, 10 mM N-ethylmaleimide, 20 µM PR-619, and 1X protease inhibitor cocktail (Roche). Lysates were spun down at 14,000 × g at 4 °C for 20 min and protein content was measured by Pierce BCA Protein Assay (ThermoFisher Scientific). […] Immunoprecipitated protein was eluted off of the beads by heating at 95 °C for 5 min and the supernatant was run on an SDS-PAGE gel and evaluated for the presence of immunoprecipitated FLAG-tagged proteins (anti-FLAG M2, Sigma #F1804), as well as ubiquitinated FLAG-tagged proteins (anti-HA-tag (6E2), CST #2367). […]

T1 sequence (Q15759 whole entry): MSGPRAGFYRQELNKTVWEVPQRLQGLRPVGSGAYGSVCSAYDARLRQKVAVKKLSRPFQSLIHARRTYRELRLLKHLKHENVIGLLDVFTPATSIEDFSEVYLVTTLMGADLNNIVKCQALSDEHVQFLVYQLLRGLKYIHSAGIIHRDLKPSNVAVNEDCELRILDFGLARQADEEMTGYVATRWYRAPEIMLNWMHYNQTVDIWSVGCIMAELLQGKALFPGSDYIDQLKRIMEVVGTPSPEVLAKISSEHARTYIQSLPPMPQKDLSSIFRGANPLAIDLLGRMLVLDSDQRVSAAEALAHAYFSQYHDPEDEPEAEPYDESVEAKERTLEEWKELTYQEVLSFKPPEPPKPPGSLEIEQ

| SMILES | p38β degradation [1] | enrichment of purified p38α on GST-VBC bait [2] | ubiquitination of immunoprecipitated FLAG-p38δ [3] |
| --- | --- | --- | --- |
| COc1cc2c(Oc3ccc(NC(=O)C4(C(=O)Nc5ccc(F)cc5)CC4)cc3F)ccnc2cc1OCCOCCOCCOc1cc(-c2scnc2C)ccc1CNC(=O)[C@@H]1C[C@@H](O)CN1C(=O)[C@H](C(C)C)N1Cc2ccccc2C1=O [SJFδ] | does not degrade | no detectable enrichment | levels of ubiquitination of immunoprecipitated p38δ greater than control cells |
| COc1cc2c(Oc3ccc(NC(=O)C4(C(=O)Nc5ccc(F)cc5)CC4)cc3F)ccnc2cc1OCCCCOCCCCOCC(=O)N[C@H](C(=O)N1C[C@H](O)C[C@H]1C(=O)NCc1ccc(-c2scnc2C)cc1)C(C)(C)C [SJFα] | does not degrade | substantial enrichment | far less abundant |
